{"source": "patent US20080299076A1", "about": "“Compunds and compositions that cause non-apoptotic cell death and uses thereof” (priority 2006, published 2008)", "key": {"A549": {"test_system": "A549", "assay": "Response of tumor cell lines to erastin (dose-response)", "format": "cell-based", "settings": "A549, lung carcinoma", "method": "(§1) Given that oncogenic RAS activates at least four downstream pathways, analysis was performed to identify which downstream effects were necessary for erastin sensitivity. In certain embodiments, the invention provides that erastin inhibits growth and kills genuine tumor cells with RAS mutations. In other embodiments, the invention provides measures of the dose-response of 29 tumor cell lines to erastin, wherein there is at least 50% inhibition of viability in 18 of the cell lines (Table 4). Numerous sarcoma-derived tumor cell lines were sensitive to erastin, consistent with the fact that erastin was discovered in an engineered tumor cell line created from human fibroblasts."}, "C-33A": {"test_system": "C-33A", "assay": "Response of tumor cell lines to erastin (dose-response)", "format": "cell-based", "method": "as §1"}, "EWS502": {"test_system": "EWS502", "assay": "Response of tumor cell lines to erastin (dose-response)", "format": "cell-based", "method": "as §1"}, "HCT 116": {"test_system": "HCT 116", "assay": "Response of tumor cell lines to erastin (dose-response)", "format": "cell-based", "settings": "HCT 116, colorectal carcinoma", "method": "as §1"}, "HeLa": {"test_system": "HeLa", "assay": "Response of tumor cell lines to erastin (dose-response)", "format": "cell-based", "method": "as §1"}, "Hs 925.T": {"test_system": "Hs 925.T", "assay": "Response of tumor cell lines to erastin (dose-response)", "format": "cell-based", "method": "as §1"}, "LNCaP": {"test_system": "LNCaP", "assay": "Response of tumor cell lines to erastin (dose-response)", "format": "cell-based", "method": "as §1"}, "MES-SA": {"test_system": "MES-SA", "assay": "Response of tumor cell lines to erastin (dose-response)", "format": "cell-based", "method": "as §1"}, "MX2": {"test_system": "MX2", "assay": "Response of tumor cell lines to erastin (dose-response)", "format": "cell-based", "method": "as §1"}, "SJSA-1": {"test_system": "SJSA-1", "assay": "Response of tumor cell lines to erastin (dose-response)", "format": "cell-based", "method": "as §1"}, "SK-ES-1": {"test_system": "SK-ES-1", "assay": "Response of tumor cell lines to erastin (dose-response)", "format": "cell-based", "method": "as §1"}, "SK-LMS-1": {"test_system": "SK-LMS-1", "assay": "Response of tumor cell lines to erastin (dose-response)", "format": "cell-based", "method": "as §1"}, "SK-N-MC": {"test_system": "SK-N-MC", "assay": "Response of tumor cell lines to erastin (dose-response)", "format": "cell-based", "method": "as §1"}, "SK-UT": {"test_system": "SK-UT", "assay": "Response of tumor cell lines to erastin (dose-response)", "format": "cell-based", "method": "as §1"}, "SVR": {"test_system": "SVR", "assay": "Response of tumor cell lines to erastin (dose-response)", "format": "cell-based", "method": "as §1"}, "SW872": {"test_system": "SW872", "assay": "Response of tumor cell lines to erastin (dose-response)", "format": "cell-based", "method": "as §1"}, "TC32": {"test_system": "TC32", "assay": "Response of tumor cell lines to erastin (dose-response)", "format": "cell-based", "method": "as §1"}, "TC71": {"test_system": "TC71", "assay": "Response of tumor cell lines to erastin (dose-response)", "format": "cell-based", "method": "as §1"}, "U-2 OS": {"test_system": "U-2 OS", "assay": "Response of tumor cell lines to erastin (dose-response)", "format": "cell-based", "method": "as §1"}, "A673": {"test_system": "A673", "assay": "Response of tumor cell lines to erastin (dose-response)", "format": "cell-based, human", "method": "as §1"}, "BJEH": {"test_system": "BJEH", "assay": "Response of tumor cell lines to erastin (dose-response)", "format": "cell-based, human", "method": "as §1"}, "BJELR": {"test_system": "BJELR", "assay": "Response of tumor cell lines to erastin (dose-response)", "format": "cell-based, human", "method": "as §1"}, "HT1080": {"test_system": "HT1080", "assay": "Response of tumor cell lines to erastin (dose-response)", "format": "cell-based, human", "method": "as §1"}, "[1]": {"assay": "Stability in mouse liver microsomes", "format": "in vitro ADME", "settings": "after 1 hr", "method": "The stability of erastin in mouse and human liver microsomes and in mouse and human plasma was assessed. In both human and mouse liver microsomes, after 1 hr, ˜30% of erastin was converted to its primary metabolite (the O-de-ethylated product). In both human and mouse plasma, only ˜10% of erastin was lost after five hours. Thus, erastin has sufficient metabolic and plasma stability to be tested in vivo in mice."}, "[2]": {"assay": "Toxicity after injection in mice", "format": "in vivo", "procedure": "In certain embodiments, erastin was formulated at 150 mg/kg in 10% DMSO, 20% Tween 80, 70% saline and 0.5 mL of this formulation was injected via IV twice per day for four days in 3 nude mice."}}}
{"compound": "CCOc1ccccc1-n1c(C(C)N2CCN(C(=O)COc3ccc(Cl)cc3)CC2)nc2ccccc2c1=O", "note": "(centres unmarked) [erastin, 2-(1-{4-[2-(4-Chloro-phenoxy)-acetyl]-piperazin-1-yl}-ethyl)-3-(2-ethoxy-phenyl)-3H-quinazolin-4-one]", "values": [{"measurement": "Max % killing", "setting": "A549", "value": 0, "unit": "%"}, {"measurement": "EC50", "setting": "C-33A; Homo sapiens", "value": 0.6, "unit": "µM"}, {"measurement": "Max % killing", "setting": "C-33A; cervical carcinoma", "value": 21, "unit": "%"}, {"measurement": "EC50", "setting": "EWS502; EWS502", "value": 10, "unit": "µM"}, {"measurement": "Erastin Sensitivity (maximum percent killing, as fraction)", "setting": "EWS502; EWS502", "value": 0.42}, {"measurement": "Max % killing", "setting": "EWS502; EWS502, Ewing sarcoma", "value": 42, "unit": "%"}, {"measurement": "Max % killing", "setting": "HCT 116", "value": 0, "unit": "%"}, {"measurement": "Max % killing", "setting": "HeLa; Cervical carcinoma", "value": 94, "unit": "%"}, {"measurement": "EC50", "setting": "HeLa; Homo sapiens", "value": 0.6, "unit": "µM"}, {"measurement": "EC50", "setting": "Hs 925.T", "value": 17, "unit": "µM"}, {"measurement": "Max % killing", "setting": "Hs 925.T; Pagetoid sarcoma", "value": 83, "unit": "%"}, {"measurement": "EC50", "setting": "LNCaP; Homo sapiens", "value": 6, "unit": "µM"}, {"measurement": "Max % killing", "setting": "LNCaP; prostate carcinoma", "value": 32, "unit": "%"}, {"measurement": "EC50", "setting": "MES-SA; Homo sapiens", "value": 3, "unit": "µM"}, {"measurement": "Max % killing", "setting": "MES-SA; Uterine sarcoma", "value": 100, "unit": "%"}, {"measurement": "EC50", "setting": "MX2; MX2", "value": 18, "unit": "µM"}, {"measurement": "Max % killing", "setting": "MX2; MX2, Uterine Sarcoma", "value": 71, "unit": "%"}, {"measurement": "EC50", "setting": "SJSA-1; Homo sapiens, SJSA-1", "value": 12, "unit": "µM"}, {"measurement": "Max % killing", "setting": "SJSA-1; SJSA-1, Osteosarcoma", "value": 100, "unit": "%"}, {"measurement": "EC50", "setting": "SK-ES-1; Homo sapiens, SK-ES1, SK-ES-1", "value": 7, "unit": "µM"}, {"measurement": "Max % killing", "setting": "SK-ES-1; SK-ES-1, Ewing sarcoma", "value": 96, "unit": "%"}, {"measurement": "Erastin Sensitivity (maximum percent killing, as fraction)", "setting": "SK-ES-1; SKES1", "value": 0.96}, {"measurement": "EC50", "setting": "SK-LMS-1; Homo sapiens, SK-LMS-1", "value": 6, "unit": "µM"}, {"measurement": "Max % killing", "setting": "SK-LMS-1; SK-LMS-1, Leimyosarcoma, vulva", "value": 100, "unit": "%"}, {"measurement": "EC50", "setting": "SK-N-MC; Homo sapiens, SK-N-MC", "value": 10, "unit": "µM"}, {"measurement": "Erastin Sensitivity (maximum percent killing, as fraction)", "setting": "SK-N-MC; SK N MC", "value": 0.95}, {"measurement": "Max % killing", "setting": "SK-N-MC; SK-N-MC, Neuroepithelioma", "value": 95, "unit": "%"}, {"measurement": "EC50", "setting": "SK-UT", "value": 4, "unit": "µM"}, {"measurement": "Max % killing", "setting": "SK-UT; Uterine, mixed mesodermal tumor", "value": 73, "unit": "%"}, {"measurement": "EC50", "setting": "SVR; Mus musculus", "value": 2.5, "unit": "µM"}, {"measurement": "Max % killing", "setting": "SVR; Pancreatic carcinoma", "value": 20, "unit": "%"}, {"measurement": "Erastin Sensitivity (maximum percent killing, as fraction)", "setting": "SW872; SW 872", "value": 0.00}, {"measurement": "Max % killing", "setting": "SW872; SW872, Liposarcoma", "value": 0, "unit": "%"}, {"measurement": "EC50", "setting": "TC32; Homo sapiens, TC-32, TC32", "value": 8, "unit": "µM"}, {"measurement": "Erastin Sensitivity (maximum percent killing, as fraction)", "setting": "TC32; TC 32", "value": 0.88}, {"measurement": "Max % killing", "setting": "TC32; TC32, Peripheral neuroepithelioma", "value": 88, "unit": "%"}, {"measurement": "Erastin Sensitivity (maximum percent killing, as fraction)", "setting": "TC71; TC 71", "value": 0.92}, {"measurement": "Max % killing", "setting": "TC71; TC71, Ewing sarcoma", "value": 92, "unit": "%"}, {"measurement": "EC50", "setting": "TC71; TC-71, TC71", "value": 10, "unit": "µM"}, {"measurement": "EC50", "setting": "U-2 OS; Homo sapiens, U2OS", "value": 6, "unit": "µM"}, {"measurement": "Max % killing", "setting": "U-2 OS; Osteosarcoma", "value": 96, "unit": "%"}, {"measurement": "Erastin Sensitivity (maximum percent killing, as fraction)", "setting": "A673; A673", "value": 0.54}, {"measurement": "Max % killing", "setting": "A673; A673, Ewing sarcoma", "value": 54, "unit": "%"}, {"measurement": "EC50", "setting": "A673; Homo sapiens, A673", "value": 30, "unit": "µM"}, {"measurement": "Erastin Sensitivity (maximum percent killing, as fraction)", "setting": "BJEH; BJ-TERT", "value": 0.22}, {"measurement": "Max % killing", "setting": "BJEH; BJEH, foreskin fibroblast w/TERT", "value": 22, "unit": "%"}, {"measurement": "EC50", "setting": "BJEH; Homo sapiens, BJeH", "value": 10, "unit": "µM"}, {"measurement": "Erastin Sensitivity (maximum percent killing, as fraction)", "setting": "BJELR; BJ-TERT/LT/ST/RAS^V12", "value": 1.00}, {"measurement": "Max % killing", "setting": "BJELR; BJELR, foreskin fibroblasts w/TERT, LT, ST, RAS", "value": 100, "unit": "%"}, {"measurement": "EC50", "setting": "BJELR; Homo sapiens, BJeLR", "value": 6, "unit": "µM"}, {"measurement": "Erastin Sensitivity (maximum percent killing, as fraction)", "setting": "HT1080; HT 1080", "value": 0.98}, {"measurement": "Max % killing", "setting": "HT1080; HT1080, Fibrosarcoma", "value": 98, "unit": "%"}, {"measurement": "EC50", "setting": "HT1080; Homo sapiens, HT-1080, HT1080", "value": 2, "unit": "µM"}, {"measurement": "converted to primary metabolite (O-de-ethylated product)", "setting": "[1]", "value": "~30", "unit": "%"}, {"measurement": "Gross toxicity (body weight and behavior)", "setting": "[2]; 150 mg/kg in 10% DMSO, 20% Tween 80, 70% saline, IV twice per day for four days, nude mice", "value": "No gross toxicity"}, {"measurement": "Overt toxicity", "setting": "[2]; single dose IP in 100% DMSO up to 450 mg/kg", "value": "no overt toxicity"}]}
